13 compounds from PubChem BioAssay (NCI) can be followed below.

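The compound was tested at five concentrations on cells cultured in 96-well plates, with a 48-hour exposure period. TGI: concentration producing complete growth inhibition.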 Bounds are passed on as bounds.

Some test systems named below: 786-0 renal; CAKI-1 renal; DU-145 prostate; HCT-116 colon; HT29 colon; OVCAR-5 ovarian; OVCAR-8 ovarian; RPMI-8226 leukemia; SK-MEL-2 melanoma; SK-MEL-28 melanoma; SN12C renal; U251 CNS.
Test in all cases: NCI anticancer screen, dose series, 48 h

`CC1=NNC(=O)C1C1CC(c2c[nH]c3ccccc23)=NNC1=O` (stereo not drawn): the TGI in the experiment with 786-0 renal, in the experiment on CAKI-1 renal, with DU-145 prostate, with HCT-116 colon, in the experiment with HT29 colon and in the experiment on OVCAR-5 ovarian was > 100 µM throughout. The TGI with OVCAR-8 ovarian, with RPMI-8226 leukemia, in the experiment on SK-MEL-2 melanoma, in the experiment with SK-MEL-28 melanoma, with SN12C renal and in the experiment with U251 CNS was > 100 µM each time.

With `COc1cc2c3c(c1)CCCN3CCC2`, the TGI in the experiment on 786-0 renal, with CAKI-1 renal, in the experiment on DU-145 prostate, in the experiment on HCT-116 colon, with HT29 colon and in the experiment with OVCAR-8 ovarian was > 10 µM throughout. The TGI in the experiment on RPMI-8226 leukemia, in the experiment with SK-MEL-2 melanoma, in the experiment with SK-MEL-28 melanoma, in the experiment on SN12C renal and in the experiment on U251 CNS was > 10 µM each time.

Turning to `COC1/C=C/C(C)C(C(C)C(OC)C(C)CCC(=O)C(C)C(C/C=C/N(C)C=O)OC)OC(=O)C=CC2OC2(C)CC(OC)C(OC)C2=CC(=O)O[C@@H](C(C)C(OC)CC(OC)/C=C/C(C)C(O)C1)[C@H]2O` (stereo partly drawn), the TGI in the experiment with 786-0 renal was 0.0176 µM; in the experiment on CAKI-1 renal, 0.0203 µM; with DU-145 prostate, 0.199 µM; in the experiment on HCT-116 colon it was 0.00596 µM; in the experiment with HT29 colon, 0.0108 µM; in the experiment with OVCAR-5 ovarian, 0.0464 µM. For the same compound, the TGI in the experiment with RPMI-8226 leukemia is > 1.24 µM; with SK-MEL-2 melanoma, 0.0446 µM; with SN12C renal it was 0.0342 µM; in the experiment with U251 CNS, 0.0416 µM.

In the case of `C=C(Br)CNC(=O)Nc1ccc(Cl)c(Cl)c1`, the TGI with 786-0 renal came out at 36 µM; in the experiment with CAKI-1 renal, 54.2 µM; in the experiment on DU-145 prostate, 89.5 µM; in the experiment with HCT-116 colon it was 32.7 µM; with HT29 colon, 73.4 µM; with OVCAR-5 ovarian, 92.4 µM. The TGI is 50.7 µM with RPMI-8226 leukemia; 32.8 µM in the experiment on SK-MEL-2 melanoma; > 100 µM in the experiment on SK-MEL-28 melanoma; 82.7 µM with SN12C renal; 66 µM with U251 CNS.

For the compound `CC1=NN(C(=O)c2ccncc2)C(=O)C1`, the TGI with 786-0 renal, in the experiment on CAKI-1 renal, with DU-145 prostate, in the experiment with HCT-116 colon, in the experiment with HT29 colon and in the experiment with OVCAR-5 ovarian was > 100 µM in each case. The TGI in the experiment with OVCAR-8 ovarian, in the experiment with SK-MEL-2 melanoma, in the experiment on SK-MEL-28 melanoma, in the experiment with SN12C renal and in the experiment on U251 CNS was > 100 µM each time.

Regarding `CC(=O)Nc1ccc(C(O)/C(=N/N)c2nc3ccc(Cl)cc3[nH]c2=O)cc1` (stereo not drawn), the TGI with 786-0 renal, in the experiment with CAKI-1 renal, with DU-145 prostate, with HCT-116 colon, in the experiment on HT29 colon and in the experiment with OVCAR-5 ovarian was > 100 µM throughout. Moreover, the TGI in the experiment on OVCAR-8 ovarian, in the experiment on SK-MEL-2 melanoma, in the experiment on SK-MEL-28 melanoma, in the experiment with SN12C renal and with U251 CNS was > 100 µM throughout.

As to `Cn1c(=O)c2[nH]c(CCNC(=O)c3ccccc3)nc2n(C)c1=O`, the TGI with 786-0 renal, with CAKI-1 renal, in the experiment on DU-145 prostate, with HCT-116 colon, in the experiment with HT29 colon and in the experiment on OVCAR-5 ovarian was > 100 µM throughout. In addition, the TGI with OVCAR-8 ovarian, with SK-MEL-2 melanoma, in the experiment on SK-MEL-28 melanoma, in the experiment with SN12C renal and in the experiment with U251 CNS was > 100 µM each time.

Consider `CC(=O)C1C(=O)C(=O)N(c2cccc([N+](=O)[O-])c2)C1=O` (stereo not drawn), for which the TGI with 786-0 renal, in the experiment with CAKI-1 renal, in the experiment on DU-145 prostate, in the experiment on HCT-116 colon, in the experiment on HT29 colon and in the experiment with OVCAR-5 ovarian was > 100 µM each time. The TGI in the experiment with OVCAR-8 ovarian, in the experiment on SK-MEL-2 melanoma, in the experiment with SK-MEL-28 melanoma, with SN12C renal and with U251 CNS was > 100 µM throughout.

Consider `CC(C)(C)OC(=O)N/N=C(/N)Cc1ccc(Cl)cc1`, for which the TGI in the experiment with 786-0 renal, in the experiment on CAKI-1 renal, in the experiment with DU-145 prostate, with HCT-116 colon, in the experiment with HT29 colon and in the experiment with OVCAR-5 ovarian was > 100 µM in each case. The TGI in the experiment with OVCAR-8 ovarian, in the experiment on SK-MEL-2 melanoma, in the experiment on SK-MEL-28 melanoma, in the experiment on SN12C renal and with U251 CNS was > 100 µM throughout.

As for `O=C1C=CC2(C=C1)O[C@H](Cc1ccccc1)[C@@H](Cc1ccccc1)O2`, the TGI with 786-0 renal came to […]; in the experiment with CAKI-1 renal it was 2.27 µM; in the experiment on DU-145 prostate, 5.89 µM; in the experiment on HT29 colon, 2.81 µM; in the experiment with OVCAR-5 ovarian, 1.34 µM; in the experiment on OVCAR-8 ovarian, 0.503 µM. The TGI in the experiment on RPMI-8226 leukemia came to 0.499 µM; in the experiment with SK-MEL-2 melanoma it was 3.33 µM; with SK-MEL-28 melanoma it was 1.71 µM; with SN12C renal it was 3.01 µM; with U251 CNS it was 2.86 µM.

`N#Cc1sc2c(c1OC(=O)c1ccccc1)c(=O)n(-c1ccccc1)c(=S)n2-c1ccccc1`: the TGI is 85.1 µM in the experiment with 786-0 renal; > 100 µM in the experiment on CAKI-1 renal; > 100 µM in the experiment with DU-145 prostate; 40.6 µM with HCT-116 colon; > 100 µM in the experiment with HT29 colon; > 100 µM with OVCAR-8 ovarian. Also, the TGI in the experiment on RPMI-8226 leukemia was 66.5 µM; with SK-MEL-2 melanoma, 80.3 µM; in the experiment with SK-MEL-28 melanoma, 72.4 µM; in the experiment on SN12C renal it was 77.7 µM; with U251 CNS, 53.3 µM.

Turning to `O=c1[nH]cc(-c2c[nH]c3ccccc23)nc1-c1c[nH]c2ccccc12`, the TGI in the experiment with 786-0 renal was found to be 23.5 µM; in the experiment on CAKI-1 renal, 24.6 µM; in the experiment on DU-145 prostate it was 28.1 µM; with HCT-116 colon it was 26.7 µM; in the experiment on OVCAR-5 ovarian, 27.6 µM; in the experiment on OVCAR-8 ovarian, 25.7 µM. For the same compound, the TGI is 43.8 µM with RPMI-8226 leukemia; 34.2 µM in the experiment with SK-MEL-2 melanoma; 31.7 µM in the experiment with SK-MEL-28 melanoma; 33.4 µM in the experiment with SN12C renal; 70.8 µM in the experiment on U251 CNS.

On to `O=[N+]([O-])c1cccc2nnccc12`, for which the TGI is 50.4 µM in the experiment on 786-0 renal; 90.6 µM with CAKI-1 renal; > 100 µM in the experiment on DU-145 prostate; 29.4 µM in the experiment on HCT-116 colon; 53.6 µM with HT29 colon; > 100 µM in the experiment with OVCAR-5 ovarian. In addition, the TGI with OVCAR-8 ovarian, with RPMI-8226 leukemia, in the experiment on SK-MEL-2 melanoma, in the experiment on SN12C renal and in the experiment on U251 CNS was > 100 µM in each case.
